Test results taken from patent US11896032B2, “Agent for improving feed conversion rate, agent for improving survival rate, agent for improving the number of eggs laid by egg-laying hen, and method of giving same to animals, and feed” (Tsubakisangyo Co., Ltd., priority 2016, dated 2024).
“And” between values parts separate entries of the source, which are not always exact repeats. Equal entries are not always repeated.

Tests used:
egg-laying hens [1] = experiment: Second test: feed with powdery acetylcysteine added given to egg-laying hens; assay type: in vivo, chicken (Julia Light); details: for egg production rate: 28 days, 42- to 46-week old hens
Experimental: The second test was performed by giving a feed, to which powdery acetylcysteine was added, to egg-laying hens.
120 individuals having an egg production rate of 82% or more 4 weeks before the start of the preparative raising were selected from Julia Light birds (281-day old when partitioned) which were being raised in the scientific feed research center of Japan Scientific Feeds Association to be fed.
Three zones were set: a control zone where a basic feed not having acetylcysteine added thereto was given, a first test zone (standard zone) where a feed comprising a basic feed to which 0.0014% acetylcysteine was added was given, and a second test zone (5-fold zone) where a feed comprising a basic feed to which 0.0072% acetylcysteine was added was given.
Four groups were assigned to each zone, and the basic feed was given for 14 days to accustom the tested hens to the test environment. After that, the feed corresponding to each zone was given for 4 weeks.
Also in the second test, a standard daily intake of acetylcysteine per bird is planned to be 1 mg per weight (Kg) of a tested hen. In the main test, from the weight at the start of preparative raising and the feed intake one week after the start of preparative raising, assuming that the weight of a tested hen was 1580 g and a daily feed intake per bird was 140 g, the amount of acetylcysteine to be added to the basic feed was set from the following expression: standard zone: amount (%) of acetylcysteine to be added to the basic feed=weight (1580 g)×acetylcysteine intake (1 mg/weight (Kg))/feed intake (114 g/day/bird)×100 5-fold zone: amount (%) of acetylcysteine to be added to the basic feed=weight (1580 g)×acetylcysteine intake (5 mg/weight (Kg))/feed intake (114 g/day/bird)×100 <Management of Raising>
The tested hens were individually managed in a terraced individual cage for egg-laying hens disposed in an open chicken house. A set of 10 continuous cages was used for each group, and a single empty cage was disposed between the zones. The feed and drinking water were continuously given. The light beams were controlled such that the bright period was 14 hours and the dark period was 10 hours.
A variation in weight, the average egg weight, the daily egg production amount, the feed intake, and the feed efficiency were subjected to analysis of variance by a method of one-way analysis of variance using the given feed as a factor, and the superiority in each interval was examined. The egg production rate was subjected to arcsine transformation, and the superiority of the difference between intervals was similarly examined. The culling hens were excluded from the average back to the start of the test, and the results of egg production and the like were summarized. The egg production rate during the test period was subjected to rejection test, and the individuals whose egg production rate was determined as abnormal were also excluded from the average back to the start of the test.
The scientific feed research center of Japan Scientific Feeds Association (821 Yoshikura, Naritashi, Chiba)
The test was performed for 42 days from September 21 to November 2, Heisei 28. The 14 days from September 21 to October 5, Heisei 28 was the preparative test period, and the 28 days from October 6 to November 2, Heisei 28 was the main test period.

egg-laying hens [2] = experiment: First test: aqueous solution of acetylcysteine given to egg-laying hens as drinking water; assay type: in vivo, chicken (Julia Light in test zone, Julia in control zone)
Experimental: The first test was performed by giving an aqueous solution of acetylcysteine to egg-laying hens as drinking water.
Adult egg-laying hens were selected as the target animal for the test because data is readily collected. The point of time when the test was started was at off-peak times in egg laying.
Two breeds Julia and Julia Light were used.
For this reason, in the main test, Julia having a low feed conversion rate (high profitability) was raised in the control zone and Julia Light having a high feed conversion rate (low profitability) was raised in the test zone.
The number of hens in the test zone was 33412 Julia Light hens and that in the control zone was also 33412 Julia hens.
The test zone and the control zone were placed in Akagiyama Farm run by Takai Poultry Farm Y.K., where chickens are actually raised, to perform the test in an actual situation.
A windowless house was used because differences between individuals and differences in heath conditions are small.
The house was provided with a cage having a width of 380 mm, a length of 500 mm, and a height of 380 mm.
To avoid application of heat stress to the target chickens for the test, the test was performed for 166 days from October 21, Heisei 27 to April 3, Heisei 28. At a temperature inside the house of more than 27° C., the feed demand (feed intake) of the chickens will reduce due to heat stress.
A Kumiai Blend Feed “Akagikougen 17 Up for adult chicken” shown in FIG. 1 was given from October 21, Heisei 27 to February 13, Heisei 28, and a Kumiai Blend Feed “Akagikougen 16 Up for adult chicken” shown in FIG. 2 was given from February 23 to April 3, Heisei 28.
As the agent for improving a feed conversion rate, the agent for improving a survival rate, or the agent for improving the number of eggs laid by an egg-laying hen, an aqueous solution of acetylcysteine was given to Julia Light in the test zone as drinking water through the nipples disposed at both ends of the ceiling of the cage.
The concentration of acetylcysteine in drinking water was prepared such that 1 mg/day/Kg acetylcysteine was given to the egg-laying hens. Specifically, 3.3 L per day of a stock solution having an acetylcysteine concentration of 10% was used for 33412 Julia Light hens having a weight of about 2 Kg.
The frequency to give the agent for improving a feed conversion rate, the agent for improving a survival rate, or the agent for improving the number of eggs laid by an egg-laying hen was one time for 5 days.
Water not containing agent for improving a feed conversion rate, the agent for improving a survival rate, or the agent for improving the number of eggs laid by an egg-laying hen was given to Julia in the control zone through the nipple.
The lower columns in FIG. 3 show the difference in the number of deaths, the difference in the number of eggs laid, the average feed demand, the average egg production rate, and the average egg weight between the target chickens for the test and the control during the test period.
A smaller number of deaths and cullings of the target chickens for the test are preferred. A larger number of eggs laid are preferred. A smaller feed demand (feed intake) is preferred although it should be balanced with the egg production rate and the egg weight. A larger egg production rate is preferred. A larger egg weight and a larger average egg weight are preferred. The feed conversion rate of the target egg-laying hen for the test is calculated as a ratio of the total weight of eggs laid to the feed demand as described above. The feed demand is calculated as a product of the feed intake, the number of birds, and the survival rate. The total weight of eggs laid is calculated as a product of the number of birds, the egg production rate, and the average egg weight.
The feed conversion rate of the target egg-laying hen for the test is represented by a ratio of the amount of feed given to the total weight of eggs laid as described above. […]

[3] = system: chickens for meat (broilers); experiment: Third test: feed with powdery acetylcysteine added given to chickens for meat (broilers); assay type: in vivo, chicken (Chunky broiler)
Experimental: A third test was performed by giving chickens for meat (broilers) a feed having powdery acetylcysteine added thereto.
300 (150 males and 150 females) broiler-dedicated breed day-old chicks (broilers available from Nippon Chunky Co., Ltd.) are fed. As the chicks, about 350 birds (175 males and 175 females) were introduced, and individuals not having any abnormal health condition and having a close weight were selected and used in the test.
The nutritional value of this basic feed is adjusted so as to be lower than the index.
The concentration of acetylcysteine added to the basic feed was determined based on the aimed results for Chunky broiler (2014).
Three groups were assigned to the control zone and the test zone, respectively, and the chicks were raised until 49-day old.
Each flock of tested chicks was raised in an electrically heated windowless chicken house of a forced ventilation (air exhaust) type.
For vaccination, chicks vaccinated with Marek's vaccine and live fowl pox vaccine when born were introduced, and were additionally vaccinated with NB live vaccine at 4-day old and 15-day old and with live fowl pox vaccine at 21-day old.
The feed and drinking water were continuously given.

chickens for meat = details: 1% glycine in feed; cited from earlier work
[4] = 1 mg/day/Kg in drinking water, 166 days

Q: What does the source list for `CC(=O)N[C@@H](CS)C(=O)O` [acetylcysteine, N-acetyl-L-cysteine]?
A: weight at the end of the test relative to control zone (egg-laying hens [1]; 5-fold zone, 0.0072% acetylcysteine in feed, 4 weeks): approximately equal; egg production rate (egg-laying hens [1]; 5-fold zone, 0.0072% in feed): 98.6%; feed conversion rate, higher than that in the control zone (egg-laying hens [1]; feed contained 0.2% DL-methionine, zone not specified): 4.43%; weight at the end of the test, larger than that in the control zone (egg-laying hens [1]; standard zone, 0.0014% acetylcysteine in feed, 4 weeks): 0.5%; egg production rate (egg-laying hens [1]; standard zone, 0.0014% in feed): 99.2%; decrease of average egg weight in test zone compared to control zone (egg-laying hens [2]; [4]): 2.16%; increase of average egg production rate in test zone compared to control zone (egg-laying hens [2]; [4]): 1.13%; increase of number of eggs laid in test zone compared to control zone (egg-laying hens [2]; [4]): 1.67%; proportion of the feed conversion rate in the test zone to that in the control zone (egg-laying hens [2]; [4]): 96.50% and 96.48%; reduction (improvement) of feed conversion rate in test zone compared to control zone (egg-laying hens [2]; [4]): 3.52%; reduction of number of deaths and cullings in test zone compared to control zone (egg-laying hens [2]; [4]): 20%; feed conversion rate in the test zone (egg-laying hens [2]; 1 mg/day/Kg in drinking water, given one time for 5 days, 166 days, control zone 1.99): 1.92; reduction of feed demand (egg-laying hens [2]; as shown in FIG. 3, test zone vs control zone): 4.67%; improvement of feed conversion rate in test zone vs control zone in consideration of the preparative test (egg-laying hens [2]; corrected for 1.59% increase in 20-day preparative test without agent): 5.11%; surface roughness of egg shells, visual observation, vs eggs of control zone (egg-laying hens [2]; eggs collected in the test zone): finer and smoother surfaces; improvement in feed conversion rate in the test of the old hens in the chicken farm (egg-laying hens [2]; old hens, chicken farm): more than 5%; calcium in solid products of feces washed with water (egg-laying hens [2]; test zone, calcium was found in the control zone): no calcium was found; feed conversion rate in the test zone relative to that in the control zone ([3]; 1 mg/Kg daily in feed, until 49-day old): 100.55%; feed efficiency in the test zone relative to that in the control zone ([3]; Weeks 4 to 7 of the second period): 101.54%; number of deaths and cullings ([3]; test zone, control zone 3 birds, Week 6 (sudden death syndrome)): 1 bird; growth rate ([3]; test zone, control zone 98%): 99.3%; feed efficiency in the test zone relative to that in the control zone ([3]; three weeks of the first period): 99.32%; feed efficiency in the test zone relative to that in the control zone ([3]; whole period, until 49-day old): 100.93%

Q: With `NCC(=O)O` [glycine] as the compound, how does the “weights of chickens of 7-day old vs without giving glycine” value (chickens for meat) read?
A: The value was “smaller”.
